As a reminder, the TGI is how far tumour growth fell short of that in controls. A low value points to little slowing of growth.

Molecules are shown by their SMILES.

The values below come from US20240245704A1, “PHARMACEUTICAL COMPOSITION AND USE OF MULTI-KINASE INHIBITOR” (TRANSTHERA SCIENCES (NANJING), INC., priority 2021, published 2024).

In this test the test system is human triple negative breast cancer BC408 subcutaneous xenograft tumor model. As to the kind of experiment: In vivo pharmacodynamic study on triple negative breast cancer patient-derived xenograft (PDX) subcutaneous tumor model. Details: species or system nude mice. Conditions: for TGI: TGI=1-T/C from relative tumor volumes. The method, then: The tumor masses were inoculated into the right back of the mice, the animals were weighed before administration, and tumor volumes were measured. Grouping was designed in blocks according to the tumor volume, with 8 mice per group except for the vehicle control, which contained 6 mice.
Administration was carried out as in Table 3 below.
Animals were monitored daily for health status and mortality, body weight and tumor volume were measured twice a week, and samples were collected after the last administration. […] T/C % is the relative tumor proliferation rate, i.e., the percentage of the relative tumor volume in the treatment and control groups at a given time point. T and C are relative tumor volumes (RTVs) of the treatment and control groups at a given time point, respectively. The calculation formula is as follows: T/C %=TRTV/CRTV×100% (TRTV: mean RTV for treatment group; CRTV: mean RTV for vehicle control group; RTV=Vt/V0, wherein V0 is the tumor volume of the animal at the time of grouping, and Vt is the tumor volume of the animal after treatment).

Where [1] appears, read: BC408 PDX in female nude mice, compound 29 15 mg/kg oral Qd*5 days/week, paclitaxel injection 25 mg/kg intraperitoneal Qw, 5 weeks.

The compound `CC(=O)O[C@H]1C(=O)[C@@]2(C)[C@H]([C@H](OC(=O)c3ccccc3)[C@]3(O)C[C@H](OC(=O)[C@H](O)[C@@H](NC(=O)c4ccccc4)c4ccccc4)C(C)=C1C3(C)C)[C@]1(OC(C)=O)CO[C@@H]1C[C@@H]2O` [Paclitaxel, paclitaxel, reference compound] returned a TGI under setting [1] of 58%.

For the compound `Cc1[nH]nc2c1N=C(c1ccccc1Cl)c1cnc(N3CCOCC3)cc1N2` [Compound 29], under setting [1], the Tumor volume is on record as 666 mm^3 and the TGI is recorded as 72%. Moreover, the “Inhibitory effect on the triple negative breast cancer PDX subcutaneous tumor model (in words)” value (BC408 PDX, doses as in Table 3) is given as “significant inhibitory effect”.
